Measurements from patent publication US20250074946A1, “USE OF SE-DR AFFINITY PEPTIDE IN PREPARING DRUG FOR TREATING RHEUMATIC DISEASE” (HEBEI FITNESS BIOTECHNOLOGY CO., LTD., priority 2021, published 2025).
Where no end group is shown, it is not given here.

Legend:
rats = conditions: cited from earlier work
CIA rats [1] = assay: APL20 in combination with methotrexate in CIA rats (Example 11); format: in vivo, rat; conditions: for inflammation score during drug discontinuation compared with that at the time of drug discontinuation: 21 days of observation after stopping at day 21; for Pathological score during 21 days of drug discontinuation: HE staining of ankle joint, score 0-4; for AUC, during drug discontinuation (day 22-42): inflammation score AUC after stopping administration at day 21
Source text: Female Lewis rats were used to establish CIA model. Methods: the rats were immunized by intradermal injecting the emulsion prepared by bovine C II and IFA at the tail head. After 7 days, the rats were boosted once with the same method. Thereafter, the morphological changes of the four paws of the rats were examined every day, and the rats were randomly assigned to the treatment group at the inflammation score of 1. […] Another 8 female Lewis rats were not subjected to model establishment and set as the control group. PBS was administrated to both the model group and the control group. Corresponding drugs were administrated to the rats in each group by tail vein injection at the volume of 5 mL/kg, in which methotrexate was administrated twice a week, and other drugs were administrated once every other day, for 21 consecutive days, followed by a recovery period of 21 days. The inflammation scores of the four paws of the rats in each group were evaluated during the administration (once every other day), and the area under the curve (AUC) of the inflammation score was calculated during the administration. During drug discontinuation, the inflammation scores of the four paws of the rats in each group were continuously evaluated (once every other day), and the rats were sacrificed on day 22 after drug discontinuation. HE staining was performed on the ankle joint for tissue injury evaluation. The specific scoring criteria were as follows: 0=normal synovial tissue; 1=synovial hyperplasia and inflammatory cell infiltration; 2-pannus formation and cartilage erosion; 3=destruction of most of the cartilage with subchondral bone erosion; 4=loss of joint integrity, ankylosis.

CIA rats [2] = assay: as above; format: in vivo, rat
HLA-DR1 [3] = assay: Determination of polypeptide affinity (fluorescence polarization competition); format: binding, human; conditions: competition with 25 nM fluorescently-labeled polypeptide, 500 nM HLA-DR1, pH 7.4, 37° C. 30 min, fluorescence polarization, curve fitting
Experimental: (§1) The reaction system was at pH 7.4. Before use, protease inhibitor cocktail was added, and incubated at 37° C. for 30 min. The fluorescence polarization values were read. The mean value of the free labeled polypeptides was set as FP_free, and the value of the well without the competitive peptide was set as FP_no_comp. The relative binding rate of other wells was calculated according to the formula=(FP_sample−FP_free)/(FP_no_comp−FP_free). A curve was plotted using the relative binding rate and the concentration of the test polypeptide, and the IC50 value was calculated by curve fitting.

HLA-DR1 [4] = molecular target: HLA-DR1 (Homo sapiens, UniProt P01903+P01911, A100R/D57E/F55L/F60I/F76Y/I96L/L162R/M171V/P40L/Q125E/R42F/V115G/Y59C); assay: as above; format: binding
Experimental: as §1

[5] = tested on: CIA mice infected with chronic hepatitis B; assay: CIA mice infected with chronic hepatitis B (Example 8); format: in vivo, mouse
Experimental: Establishment of chronic hepatitis B model in mice: DBA/1 mice were injected with Raav8-1. 3 HBV (1×10^12 vg/mL) via tail vein to establish HBV chronic hepatitis B model.
DBA/1 mice infected with chronic hepatitis B were used to establish CIA model with chronic hepatitis B infection. Methods: Two days after the mice were injected with Raav8-1.3 HBV (1×10^12 vg/mL) via tail vein, the emulsion of bovine C II and CFA (containing 100 μg collagen) was intradermally injected into the tail head of the mice for immunization. After 21 days, the mice were boosted once by intraperitoneal injection of the emulsion (containing 100 μg collagen) prepared by bovine C II and IFA. Thereafter, the morphological changes of the four paws of the mice were examined every day, and the mice were randomly assigned to the treatment group at inflammation score of 1. […] Another 10 mice with latent hepatitis B infection were not subjected to model establishment and set as the control group. PBS was administrated to both the model group and the control group. The mice in each group were given the corresponding drugs by tail intravenous injection at the volume of 10 ml/kg, once every other day, for 27 consecutive days. The mice were sacrificed on day 28 after administration. The inflammation scores of the four paws of the mice in each group were evaluated during the administration. The serological indicators for virus injection and liver function of the mice were detected on the day of booster immunization (22 days after tail vein injection) and at the time of sacrifice.

PBMC = PBMC stimulation test, IL-6 in supernatant by ELISA; format: cell-based, human; conditions: PBMC 1×10^6 cell/ml, peptide 10 μg/ml, 5 days of culture
Source text: The SE-DR molecule is directly related to the pathogenesis of RA. It can present RA-related autoantigens in vivo, such as type II collagen (CII), heat shock protein 60 (Hsp60), cartilage glycoprotein (HCgp-39) and so on, and further activate autoreactive T cells, leading to the occurrence of rheumatoid arthritis. An important strategy for the treatment of RA is to use competitive inhibition to block the activation of autoreactive T cells by autoantigen peptides. […] Based on the above principles, we have designed and synthesized a series of altered peptide ligands, and screened for their affinity to SE-DR and for the activation ability on the peripheral blood T cells in RA patients. The specific steps and results are shown in Example 1 and Example 2.
3 mL ficoll was added to a 15 mL centrifuge tube, and 4 mL blood sample was then applied on the surface of ficoll. The tube was centrifuged at 400 g at 18-20° C. for 30-40 min. The upper layer of plasma was aspirated with a Pasteur pipette, and the PBMC layer (approximately 2 mL) was aspirated, and added to a 14 mL centrifuge tube previously filled with at least 3 volumes (6 mL) of PBS. The mixture was gently resuspended. The tube was centrifuged at 60-100 g for 10 min at 18-20° C. After centrifugation, the supernatant was removed with a Pasteur pipette, and the resulting cell mass was resuspended in 6-8 mL PBS and centrifuged at 18-20° C. for 10 min at 60-100 g to remove the supernatant. The cells were resuspended in an appropriate amount of 1640 complete medium and diluted to 1×10^6 cell/ml after cell counting. The diluted cell suspension was added to a 96-well plate. The positive control, allosteric peptide, was added to 100 μl cell culture to a final concentration of 10 μg/ml. The mixture was replenished to 200 μL with 1640 complete medium. After 5 days of culture, the supernatant was aspirated, centrifuged at 3000 rpm for 5 minutes, and the level of IL-6 in the supernatant was detected by ELISA.

[6] = tested on: immune system of healthy rats; assay: Immune indicators of SD rats after one month of administration (Example 4); format: in vivo, rat; conditions: once a day for 4 weeks, end of administration
Experimental: SD rats were used to investigate the effects of the SE-DR affinity peptides on the immune indicators of the rats after continuous administration for one month. […] At the end of administration, analysis was conducted on the serum anti-FNS007 antibodies, different types of serum immunoglobulins, the serum complement, the peripheral blood T lymphocyte and the serum cytokines.

CIA rats [7] = assay: CIA rat model: inflammation score AUC and peripheral blood T-cell subtypes (Example 3); format: in vivo; conditions: 0.2 mmol
Experimental: Collagen-induced arthritis (CIA) model was established by intradermal injection of the emulsion formulated using type II bovine collagen (CII) together with incomplete Freund's adjuvant (IFA) into the tail head of a female Lewis rat. After the model establishment, the morphological changes of rats' four paws were examined every day. […] Except for the model group, the dosage of polypeptide was all set as 0.2 mmol. A control group was also set up, in which the drug was injected into the tail vein once every other day for […]. The area under the curve (AUC) of the inflammation score was used for the efficacy analysis from the day the rats were enrolled, once every other day, until the end of administration.

[8] = tested on: CIA rats with latent tuberculosis infection
[9] = tested on: immune system of healthy monkeys; assay: Immune indicators of cynomolgus monkeys after one month of administration (Example 5); format: in vivo, cynomolgus monkey; conditions: once a day for 4 weeks, end of administration
Source text: Cynomolgus monkeys were used to investigate the effects of the SE-DR affinity peptide on the immune indicators of cynomolgus monkeys after continuous administration for one month. […] At the end of administration, the immune indicators, including the serum anti-FNS007 antibodies, the immunoglobulins of different serotypes, the serum complement, the peripheral blood T lymphocyte and the serum cytokines, were observed.

[10] = inflammation score AUC, APL20 0.2 mmol once every other day, methotrexate 0.5 mg/kg twice a week, i.v.
[11] = peripheral blood, […] after end of administration, flow cytometry

CN(Cc1cnc2nc(N)nc(N)c2n1)c1ccc(C(=O)N[C@@H](CCC(=O)O)C(=O)O)cc1 [Methotrexate, methotrexate]
half lethal dose (rats): 43 mg/kg | inflammation score during drug discontinuation compared with that at the time of drug discontinuation (CIA rats [1]): significantly increased | Pathological score during 21 days of drug discontinuation (CIA rats [1]): 2.87 ± 0.79 | AUC, during drug discontinuation (day 22-42) (CIA rats [1]): 100.13 ± 50.66 | AUC, during administration (day 1-21) (CIA rats [1]; [10]): 67.69 ± 22.72 | AUC, the first week during administration (CIA rats [1]; [10]): 16.58 ± 5.23 | AUC, during administration (day 1-21) (CIA rats [1]; inflammation score AUC, APL20 0.2 mmol once every other day, methotrexate 0.5 mg/kg twice a week, i.v., listed as methotrexate): 67.69 | Incidence of infection in mice (CIA rats [2]): 20%

AVKHNALKWA [APL52]
IC50 (HLA-DR1 [3]): > 100 µM

PGYVKQGTLGLAT [APL3]
IC50 (HLA-DR1 [4]): 3.35 µM

RSFTAASSETGVG [APL14]
IC50 (HLA-DR1 [3]): 6.54 µM

SIDLKDKKYKNIGAKLVQLVANNTNEEA [APL20]
ALT level ([5]; at sacrifice, day 28): 46.28 ± 17.99 U/L | Hepatitis B activation rate (Ratio of ALT > 100 U/L) ([5]; at sacrifice, day 28): 0% | Observation on the daily condition of mice ([5]; during administration): No abnormality | Inflammation score and area under the time curve (AUC) ([5]; peptides 50 μmol, Abatacept 100 μg, tail i.v. once every other day for 27 days): 92.34 ± 53.29 | inflammation score during drug discontinuation compared with that at the time of drug discontinuation (CIA rats [1]): could maintain the therapeutic effect | Pathological score during 21 days of drug discontinuation (CIA rats [1]): 2.05 ± 0.34 | AUC, during drug discontinuation (day 22-42) (CIA rats [1]): 50.11 ± 41.27 | Incidence of infection in mice (CIA rats [2]): 0% | IL-6 levels in the supernatant (PBMC): 2.7 ng/mL | CD3% [6]: 36.96 ± 9.81% | CD4% [6]: 18.96 ± 5.98% | CD8% [6]: 17.99 ± 8.23% | IFN-γ [6]: 2.58 ± 0.29 pg/mL | IL-2 [6]: 3.55 ± 2.75 pg/mL | IL-4 [6]: 2.03 ± 1.01 pg/mL | TNF-α [6]: 5.09 ± 1.88 pg/mL | Inflammation score and area under the time curve (AUC) (CIA rats [7]; female Lewis CIA rats, tail vein once every other day for 15 days): 55.31 ± 40.23 | Th1 (%) (CIA rats [7]; [11]): 0.18 ± 0.07 % | Th2 (%) (CIA rats [7]; [11]): 4.35 ± 0.62 % | Th17 (%) (CIA rats [7]; [11]): 0.88 ± 0.07 % | Treg (%) (CIA rats [7]; [11]): 5.46 ± 0.81 % | Observation on the daily condition of rats ([8]; during administration): No abnormality | Tuberculosis recurrence rate ([8]; peptides 0.2 mmol, adalimumab 1 mg/kg, 21 days): 0% | Inflammation score and area under the time curve (AUC) ([8]; peptides 0.2 mmol, adalimumab 1 mg/kg, tail i.v. once every other day for 21 days): 49.62 ± 35.87 | Culture of MTB from lungs and spleens of rats at sacrifice ([8]; sacrifice on day 22, peptides 0.2 mmol, adalimumab 1 mg/kg): Negative | CD3% [9]: 62.96 ± 9.77% | CD4% [9]: 27.82 ± 8.05% | CD8% [9]: 22.97 ± 7.09% | IFN-γ [9]: 5.18 ± 0.33 pg/mL | IL-2 [9]: 4.55 ± 0.71 pg/mL | IL-4 [9]: 2.16 ± 0.36 pg/mL | TNF-α [9]: 2.45 ± 0.38 pg/mL
